Where two headings read alike, the source gives them in different places.

Drawing on patent US20190345146A1, “NITROGEN CONTAINING BICYCLIC DERIVATIVES FOR TREATING PAIN AND PAIN RELATED CONDITIONS” (ESTEVE PHARMACEUTICALS, S.A., priority 2016, published 2019), this text covers Ki for two compounds.

Assay [1] addresses human α2δ-1 subunit of Cav2.2 calcium channel (Homo sapiens, UniProt P54289). Description: Binding assay to human α2δ-1 subunit of Cav2.2 calcium channel ([3H]-Gabapentin). As to conditions: read-out: Ki(nM) alpha2delta Hum. How it is done:
• Binding assay to human α2δ-1 subunit of Cav2.2 calcium channel.
Human α2δ-1 enriched membranes (2.5 μg) were incubated with 15 nM of radiolabeled [3H]-Gabapentin in assay buffer containing Hepes-KOH 10 mM, pH 7.4.
NSB (non specific binding) was measured by adding 10 μM pregabalin. The binding of the test compound was measured at five different concentrations. After 60 min of incubation at 27° C., the binding reaction was terminated by filtering through Multiscreen GF/C (Millipore) presoaked in 0.5% polyethyleneimine in Vacuum Manifold Station, followed by 3 washes with ice-cold filtration buffer containing 50 mM Tris-HCl, pH 7.4.
(§1) Filter plates were dried at 60° C. for 1 h and 30 μl of scintillation cocktail were added to each well before radioactivity reading.
(§2) Readings were performed in a Trilux 1450 Microbeta radioactive counter (Perkin Elmer). • Binding assay to human norepinephrine transporter (NET).

Assay [2] deals with human norepinephrine transporter (NET) (Homo sapiens, UniProt P23975). The assay can be described thus: Binding assay to human norepinephrine transporter (NET) ([3H]-Nisoxetin). The following applies: Table 2, dual compounds, human NET enriched membranes, read-out: Ki(nM) NET Hum. How it is done: as §2
Human norepinephrine transporter (NET) enriched membranes (5 μg) were incubated with 5 nM of radiolabeled [3H]-Nisoxetin in assay buffer containing 50 mM Tris-HCl, 120 mM NaCl, 5 mM KCl, pH 7.4.
NSB (non specific binding) was measured by adding 10 μM desipramine. The binding of the test compound was measured at five different concentrations. After 60 min incubation at 4° C., binding reaction was terminated by filtering through Multiscreen GF/C (Millipore) presoaked in 0.5% polyethyleneimine in Vacuum Manifold Station, followed by 3 washes with ice-cold filtration buffer containing 50 mM Tris-HCl, 0.9% NaCl, pH 7.4.
as §1
Readings were performed in a Trilux 1450 Microbeta radioactive counter (Perkin Elmer).

Setting [3] is: Table 1, human α2δ-1 enriched membranes.
[4] abbreviates: Table 2, dual compounds, human α2δ-1 enriched membranes.

Sequence of human α2δ-1 subunit of Cav2.2 calcium channel (P54289 25-1103): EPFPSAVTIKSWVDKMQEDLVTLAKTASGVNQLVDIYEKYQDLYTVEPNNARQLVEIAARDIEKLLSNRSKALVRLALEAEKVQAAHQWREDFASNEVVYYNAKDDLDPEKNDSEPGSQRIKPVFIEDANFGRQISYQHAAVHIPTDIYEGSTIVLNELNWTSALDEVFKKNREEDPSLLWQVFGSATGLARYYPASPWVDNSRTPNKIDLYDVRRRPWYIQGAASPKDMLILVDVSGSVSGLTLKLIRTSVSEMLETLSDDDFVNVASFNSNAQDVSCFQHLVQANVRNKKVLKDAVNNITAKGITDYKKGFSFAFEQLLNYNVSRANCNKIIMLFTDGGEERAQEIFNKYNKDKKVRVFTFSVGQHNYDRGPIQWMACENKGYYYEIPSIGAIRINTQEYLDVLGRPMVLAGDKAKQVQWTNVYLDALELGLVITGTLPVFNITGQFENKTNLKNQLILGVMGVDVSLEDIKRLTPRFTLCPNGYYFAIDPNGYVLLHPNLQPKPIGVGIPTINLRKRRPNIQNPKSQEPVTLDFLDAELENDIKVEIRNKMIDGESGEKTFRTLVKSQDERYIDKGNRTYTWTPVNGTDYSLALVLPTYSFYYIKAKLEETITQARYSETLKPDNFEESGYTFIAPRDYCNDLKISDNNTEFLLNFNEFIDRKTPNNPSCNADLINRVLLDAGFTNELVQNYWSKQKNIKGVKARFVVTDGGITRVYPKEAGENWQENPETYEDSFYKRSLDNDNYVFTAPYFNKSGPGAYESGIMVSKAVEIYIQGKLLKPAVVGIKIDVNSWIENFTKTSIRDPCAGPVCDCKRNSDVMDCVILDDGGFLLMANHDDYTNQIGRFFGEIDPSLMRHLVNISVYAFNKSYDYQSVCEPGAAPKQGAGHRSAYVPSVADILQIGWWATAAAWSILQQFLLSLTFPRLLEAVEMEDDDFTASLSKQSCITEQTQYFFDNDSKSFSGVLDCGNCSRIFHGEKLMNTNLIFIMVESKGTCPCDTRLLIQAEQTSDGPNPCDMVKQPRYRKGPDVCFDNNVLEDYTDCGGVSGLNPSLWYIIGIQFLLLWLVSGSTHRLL
Sequence of human norepinephrine transporter (NET) (P23975 whole entry): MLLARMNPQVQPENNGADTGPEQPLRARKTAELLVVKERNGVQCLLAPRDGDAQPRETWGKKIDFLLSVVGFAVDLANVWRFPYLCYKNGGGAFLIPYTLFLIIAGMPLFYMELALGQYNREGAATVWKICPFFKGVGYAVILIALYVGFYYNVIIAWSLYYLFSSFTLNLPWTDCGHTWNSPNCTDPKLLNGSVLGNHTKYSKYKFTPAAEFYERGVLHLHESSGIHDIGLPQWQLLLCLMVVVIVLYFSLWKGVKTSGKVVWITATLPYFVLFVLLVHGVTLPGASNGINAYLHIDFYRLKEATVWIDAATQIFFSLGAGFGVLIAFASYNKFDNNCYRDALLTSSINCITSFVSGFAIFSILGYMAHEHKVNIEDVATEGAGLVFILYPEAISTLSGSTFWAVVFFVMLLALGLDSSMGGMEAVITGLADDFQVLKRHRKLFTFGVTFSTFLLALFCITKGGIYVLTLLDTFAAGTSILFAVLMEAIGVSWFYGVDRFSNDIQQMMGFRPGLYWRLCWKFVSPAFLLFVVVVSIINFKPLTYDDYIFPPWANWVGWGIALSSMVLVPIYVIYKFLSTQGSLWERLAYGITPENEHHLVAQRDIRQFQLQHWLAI

For the compound `CNCCC(Oc1cccc2c1CCN(CC(F)F)C2)c1cccs1` (stereo not drawn) [Example 3, 3-((2-(2,2-difluoroethyl)-1,2,3,4-tetrahydroisoquinolin-5-yl)oxy)-N-methyl-3-(thiophen-2-yl)propan-1-amine], the Ki in assay [1] (setting [3]) fell in the range of 100 to 500 nM; in assay [1] (setting [4]), 100 to 500 nM; in assay [2], 500 to 1000 nM.
`CNCCC(Oc1cccc2c1CCCN2C)c1cccs1` (stereo not drawn) [Example 1, N-Methyl-3-((1-methyl-1,2,3,4-tetrahydroquinolin-5-yl)oxy)-3-(thiophen-2-yl)propan-1-amine]: the Ki in assay [1] (setting [3]) was in the range of 100 to 500 nM; in assay [1] (setting [4]) it was 100 to 500 nM; in assay [2] it was 500 to 1000 nM.
